Tested on: CYP1A1 gene expression
Assay: CYP1A1 gene expression (qRT-PCR) in keratinocytes after induction with model particles
Assay type: cell-based, human
Conditions: 10 μM, untreated = 1
Protocol: Gene expression was analyzed via qRT-PCR.

## E/Z-2-benzylindene-5,6-dimethoxy-3,3-dimethylindan-1-one [BDDI]
NHEK adult, SRM1650 1.5 μg/cm2, 6 h
  CYP1A1 Induction mean ± SE: 0.02 ± 0.00
NHEK adult, SRM2975 1.5 μg/cm2, 6 h
  CYP1A1 Induction mean ± SE: 0.20 ± 0.00
NHEK adult, SRM2975 1.5 μg/cm2, 24 h
  CYP1A1 Induction mean ± SE: 0.01 ± 0.00
Indoor particles Huber990 1.5 μg/cm2, 6 h
  CYP1A1 Induction mean ± SE: 0.05 ± 0.00
Indoor particles Huber990 1.5 μg/cm2, 24 h
  CYP1A1 Induction mean ± SE: 0.20 ± 0.00
